Measurements published in PubChem BioAssay (NCI).
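Grown in 96-well plates, cells were treated for 48 hours with each compound at five concentrations. Insufficient inhibition: endpoint recorded as highest concentration tested. GI50 marks 50% less growth. TGI marks complete inhibition of growth.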

What was measured:
Assay in all cases: DTP human tumour cell line panel, 48 h
DU-145 prostate = tested on: DU-145 prostate
MALME-3M melanoma = tested on: MALME-3M melanoma
RXF 393 renal = tested on: RXF 393 renal
SF-295 CNS = tested on: SF-295 CNS
SK-MEL-5 melanoma = tested on: SK-MEL-5 melanoma
TK-10 renal = tested on: TK-10 renal
UO-31 renal = tested on: UO-31 renal
IGROV1 ovarian = tested on: IGROV1 ovarian

SMILES	GI50 (DU-145 prostate)	TGI (DU-145 prostate)	GI50 (MALME-3M melanoma)	TGI (MALME-3M melanoma)	GI50 (RXF 393 renal)	TGI (RXF 393 renal)	GI50 (SF-295 CNS)	TGI (SF-295 CNS)	GI50 (SK-MEL-5 melanoma)	TGI (SK-MEL-5 melanoma)	GI50 (TK-10 renal)	TGI (TK-10 renal)	GI50 (UO-31 renal)	TGI (UO-31 renal)	GI50 (IGROV1 ovarian)	TGI (IGROV1 ovarian)
O=C1Nc2ccccc2/C1=C/c1cn(C(=O)c2c(Cl)cccc2Cl)c2ccccc12	2.72 µM	9.24 µM	2.61 µM	14.9 µM	4.14 µM	16.6 µM	2.24 µM	9.3 µM	7.52 µM	20.4 µM	10.4 µM	56 µM	1.14 µM	7.5 µM	–	–
CC(=O)c1c(O)ccc2c(C)c(C(=O)O)oc12	> 100 µM	> 100 µM	> 100 µM	> 100 µM	> 100 µM	> 100 µM	> 100 µM	> 100 µM	> 100 µM	> 100 µM	> 100 µM	> 100 µM	> 100 µM	> 100 µM	> 100 µM	> 100 µM
O[C@@H]1CCCN1Cc1cc2cc3c(cc2c2cc(OCc4ccccc4)ccc12)OCO3	5.24 µM	21.8 µM	2.37 µM	5.44 µM	1.53 µM	3.85 µM	1.95 µM	4.23 µM	1.78 µM	3.5 µM	5.85 µM	19.8 µM	11.2 µM	25.2 µM	5.48 µM	20.1 µM
O=C1/C(=C/c2ccc(Cl)cc2)CN(Cc2cn(CCNc3ccnc4cc(Cl)ccc34)nn2)C/C1=C\c1ccc(Cl)cc1	0.426 µM	1.38 µM	1.53 µM	3.14 µM	0.201 µM	0.416 µM	0.222 µM	0.541 µM	0.807 µM	2.08 µM	0.483 µM	1.6 µM	0.242 µM	0.698 µM	0.276 µM	0.732 µM
Oc1ccccc1Nc1nc2ccccc2c2occc12	9.66 µM	21.4 µM	–	–	–	–	3.71 µM	16.1 µM	6.1 µM	19.4 µM	1.9 µM	6.65 µM	5.91 µM	19.6 µM	0.0614 µM	15.8 µM
N#CCC12CC=CCC1=C(O)C(=O)c1ccc(O)cc12 (stereo not drawn)	–	> 100 µM	–	> 100 µM	–	> 100 µM	–	> 100 µM	–	> 100 µM	–	> 100 µM	–	> 100 µM	–	> 100 µM
O=C(NCC(=O)N1CC[C@H](NC2CCC(O)(c3ccc(-c4ncccn4)cn3)CC2)C1)c1cccc(C(F)(F)F)c1 (stereo partly drawn)	> 100 µM	> 100 µM	37.1 µM	> 100 µM	61.7 µM	> 100 µM	38.2 µM	> 100 µM	18.2 µM	46.6 µM	> 100 µM	> 100 µM	52.3 µM	> 100 µM	> 100 µM	> 100 µM
Cc1ccc(NSc2ccccc2[N+](=O)[O-])cc1	0.984 µM	15.3 µM	3.21 µM	28.9 µM	0.868 µM	5.27 µM	0.889 µM	9.18 µM	0.152 µM	13.6 µM	10.4 µM	25.4 µM	2.07 µM	16 µM	1.25 µM	28.2 µM
O=c1[nH]ccc2nc(-c3ccc(CN4CCC(c5nc(-c6ccccn6)n[nH]5)CC4)cc3)c(-c3ccccc3)cc12	22.3 µM	> 100 µM	2.09 µM	34.7 µM	0.272 µM	4.73 µM	1.11 µM	19.9 µM	6.03 µM	24 µM	3.37 µM	30.4 µM	0.975 µM	> 100 µM	0.0652 µM	> 100 µM
COc1cc(Nc2ncc3c(C)nc(-c4cccc(Oc5ccccc5)c4)n3n2)cc(OC)c1OC	3.05 µM	> 25 µM	5.32 µM	18.7 µM	2.28 µM	> 25 µM	7.2 µM	> 25 µM	3.28 µM	6.74 µM	3.52 µM	> 20.6 µM	1.39 µM	18.2 µM	2.32 µM	> 25 µM
O=C1Nc2ccccc2/C1=C/c1ccccc1	–	27.4 µM	–	–	–	22.9 µM	–	36.1 µM	–	26.1 µM	–	45.1 µM	–	25.3 µM	–	33.1 µM
CC(C)=CCc1ccc(O)c(=O)cc1C(C)C	0.889 µM	> 100 µM	0.966 µM	9.39 µM	1.55 µM	17.4 µM	0.939 µM	> 36.9 µM	0.582 µM	4.08 µM	0.746 µM	> 100 µM	0.378 µM	3.92 µM	0.43 µM	16.1 µM
O=C(CC(O)c1ccncc1)c1ccccc1 (stereo not drawn)	45.5 µM	> 100 µM	–	–	21.3 µM	> 100 µM	27.7 µM	> 100 µM	16.1 µM	30.8 µM	41.8 µM	> 100 µM	22.1 µM	> 100 µM	35.9 µM	> 100 µM
CN1C(=O)c2cc([N+](=O)[O-])ccc2[C@H]2C(=O)c3cc4c(cc3[C@H]21)OCO4	0.0506 µM	14.9 µM	–	–	0.398 µM	–	< 0.01 µM	1.01 µM	0.0534 µM	0.176 µM	1.28 µM	–	0.0409 µM	1.51 µM	0.153 µM	12 µM
COc1cc(C(=O)/C=C/c2c(-c3ccc(F)cc3)nc3ncccn23)cc(OC)c1OC	1.63 µM	6.11 µM	2.84 µM	58 µM	1.44 µM	4.09 µM	2.43 µM	6.53 µM	–	–	3.25 µM	22.6 µM	0.73 µM	> 100 µM	1.93 µM	9.53 µM
O=C1c2cccc3cccc(c23)C(=O)N1CCCCN1CCN(CCCCOc2ccc(-c3nc4ccc(N5CCOCC5)cc4[nH]3)cc2)CC1	> 100 µM	> 100 µM	29.5 µM	> 100 µM	–	–	> 100 µM	> 100 µM	9.1 µM	> 100 µM	> 100 µM	> 100 µM	> 100 µM	> 100 µM	61.9 µM	> 100 µM
